Where two headings read alike, the source gives them in different places.
Test system: α7 integrin promoter
Assay: muscle cell-based assay: α7βgal+/− myoblasts/myotubes, LacZ reporter, β-galactosidase cleavage of FDG
Design: species or system mouse
Conditions: for α7 integrin expression in muscle: screen of DIVERSet library; for Results in a α7+/− β-galactosidase assay, Myotubes, 0.5 uM: compound at 0.5 uM; for Results in a α7+/− β-galactosidase assay, Myotubes, 1 uM: compound at 1 uM; for Results in a α7+/− β-galactosidase assay, Myotubes, 5 uM: compound at 5 uM; for Results in a α7+/− β-galactosidase assay, Myotubes, 10 uM: compound at 10 uM; for Results in a α7+/− β-galactosidase assay, Myotubes, 20 uM: compound at 20 uM; for Results in a α7+/− β-galactosidase assay, Myotubes, 40 uM: compound at 40 uM
Protocol: An α7 integrin null mouse was produced in which exon 1 of the gene encoding the α7 integrin was replaced by the LacZ reporter. In these mice, all the transcriptional regulatory elements of the α7 integrin promoter were retained, allowing β-galactosidase to report expression of 7 integrin. A primary myoblast cell line (designated α7βgal^+/−) isolated from 10 day old α7^+/− pups were analyzed for the ability of β-galactosidase to report α7 integrin expression. α7βgal^+/− myoblasts were differentiated and subjected to X-gal staining and western analysis (FIGS. 1A and 1B).
The activity of the α7 integrin promoter was measured by β-galactosidase cleavage of the non-fluorescent compound fluorescein di-β-D-galactopyranoside (FDG) to fluorescein. This assay was used to screen compound libraries to identify molecules that up-regulate α7 integrin expression in muscle.
Also evaluated was the effect of various isoforms of laminin and the ligand for α7β1 integrin on integrin expression. Positive hits were subjected to dose-response analysis, western analysis and a myostatin counterscreen (a negative regulator of muscle growth).

[1] = Mus musculus, given as log AC50 (negative values), read-out: Fit LogAC50 (converted)
[2] = curve class number, key not given
[3] = curve fit, activity at zero concentration
[4] = enhancement of α7 integrin expression in muscle cells
[5] = Mus musculus, enhancement of α7 integrin expression in muscle cells, read-out: EC50

Structure (SMILES) | Results in a α7+/− β-galactosidase assay, Myotubes, 0.5 uM | Results in a α7+/− β-galactosidase assay, Myotubes, 1 uM | Results in a α7+/− β-galactosidase assay, Myotubes, 5 uM | Results in a α7+/− β-galactosidase assay, Myotubes, 10 uM | Results in a α7+/− β-galactosidase assay, Myotubes, 20 uM | Results in a α7+/− β-galactosidase assay, Myotubes, 40 uM | other results
N#Cc1ccc(Sc2nc3ccccc3[nH]2)cc1C#N [Compound 218] |  |  |  |  |  |  | EC50 [1]: 10 µM; Score (Table 12 compound data): 42; Fit Curve Class [2]: 2.2; Fit HillSlope (curve fit): 3.6272; Fit Zero Activity [%] [3]: 13.7566%
CC(=O)Nc1nonc1-c1nc2ccccc2n1CCC(C)C [Compound 219] |  |  |  |  |  |  | EC50 [1]: 11.2 µM; Score (Table 12 compound data): 42; Fit Curve Class [2]: 2.2; Fit HillSlope (curve fit): 1.5936; Fit Zero Activity [%] [3]: −7.5793%
C=CCn1c(COc2ccc(Cl)cc2)nnc1SCc1ccc(C#N)cc1 [Compound 220] |  |  |  |  |  |  | EC50 [1]: 11.2 µM; Score (Table 12 compound data): 42; Fit Curve Class [2]: 2.1; Fit HillSlope (curve fit): 3.2975; Fit Zero Activity [%] [3]: 8.1688%
O=C(Cn1nc(-c2ccc(Cl)cc2)ccc1=O)N1CCC2(CC1)OCCO2 [Compound 221] |  |  |  |  |  |  | Fit Curve Class: 2.2; Fit HillSlope: 4.095; Fit Zero Activity [%]: 7%; Score: 41; EC50 (Mus musculus, read-out: Fit LogAC50 (converted)): 11.2 µM
CCOC(=O)/C(C(=O)c1ccccc1)=C(\N)NCCO [Compound 222] |  |  |  |  |  |  | EC50 [1]: 12.6 µM; Score (Table 12 compound data): 41; Fit Curve Class [2]: 2.2; Fit HillSlope (curve fit): 4.095; Fit Zero Activity [%] [3]: 9.8519%
Cn1c(SCC(=O)c2ccccc2)nc2c(c1=O)C1(CCCC1)Cc1ccccc1-2 [Compound ID# 1001, 3-methyl-2-[(2-oxo-2-phenylethyl)thio]-3H-spiro[benzo[h]quinazoline-5,1″-cyclopentan]-4(6H)-one] |  |  |  |  |  |  | Optimal Concentration [4]: 12.5 μm; EC50 (enhancement of α7 integrin expression in muscle cells, read-out: EC50): 3 µM; α7 integrin expression in muscle: increased
CCC(=O)c1ccccc1OCCCN1CCN(C)CC1.Cl [Compound ID# 1002, 1-{2-[3-(4-methyl-1-piperazinyl)propoxy]Phenyl}-1-propanone hydrochloride] |  |  |  |  |  |  | EC50 [5]: 1.5 µM; Optimal Concentration [4]: 12.5 μm; α7 integrin expression in muscle: increased
CCC(=O)c1ccccc1OCCCN1CCCCC1.Cl [Compound ID# 1003, 1 {2-[3-(1-piperidinyl)propoxy}phenyl}-1-propanone hydrochloride] |  |  |  |  |  |  | EC50 [5]: 5 µM; Optimal Concentration [4]: 25 μm; α7 integrin expression in muscle: increased
CC(=O)N(O)CCCCCNC(=O)CCC(=O)N(O)CCCCCNC(=O)CCC(=O)N(O)CCCCCN [Deferoxamine, deferoxamine, reference compound] |  |  |  |  |  |  | EC50 (Mus musculus, Myotube, α7βgal+/− myotubes, dose-response, read-out: EC50): 10 µM; EC50 [5]: 10 µM; Optimal Concentration [4]: 20 μm
O=C(CNC(=O)c1cccc(F)c1)N/N=C/c1cc(Br)ccc1OCc1ccccc1 [drawing 311] | −0.0152 | 0.1201 | 0.07121 | 0.000591 | −0.3123 | −0.2936 | 
Cc1ccccc1-n1c(S)nnc1Cc1cccs1 [drawing 312] | 0.05774 | 0.1436 | −0.03653 | 0.08958 | −0.1182 | −0.01563 | 
CCCCN(CC)Cc1ccc(C/N=C(\S)Nc2ccccc2F)o1 [drawing 313] | 0.05863 | 0.01354 | −0.01977 | 0.01526 | −0.2661 | −0.1331 | 
COc1ccc2c(c1)C(=C(C#N)C#N)C(=O)N2CCc1ccccc1 [drawing 314] | 0.006429 | 0.1052 | 0.04228 | −0.09235 | −0.8051 | −0.734 | 
Cn1cc(CN(CCO)Cc2cccs2)c(-c2ccccc2F)n1 [drawing 315] | 0.06985 | 0.09322 | 0.1949 | 0.1433 | −0.3105 | −0.2586 | 
CCN1C(=O)/C(=C(/C#N)c2nc3ccccc3[nH]2)c2ccccc21 [drawing 316] | −0.1345 | −0.06381 | 0.001992 | 0.06976 | −0.2893 | −0.2363 | 
Cc1ccc2c(c1)/C(=C/c1ccc(F)cc1)C(=O)N2 [drawing 317] | 0.09119 | 0.07633 | 0.0903 | −0.07782 | −0.4653 | −0.4823 | 
O=C1Nc2ccccc2/C1=C\c1ccnc2ccccc12 [drawing 318] | 0.1725 | 0.09552 | 0.4005 | 0.4118 | −0.4266 | −0.342 | 
CCc1c(C)sc(NC(=O)c2ccco2)c1C#N [drawing 319] | −0.09933 | −0.00083 | 0.02008 | 0.1359 | −0.1945 | −0.05014 | 
CCc1c(C)sc(NC(=O)c2ccco2)c1C#N [drawing 320] | 0.1503 | 0.1892 | 0.6497 | −0.03138 | −0.1002 | −0.1982 | 
O=C1Nc2ccccc2/C1=C/c1ccccc1Cl [drawing 321] | 0.1248 | 0.1803 | −0.0494 | −0.1957 | −0.4748 | −0.6409 | 
COc1cccc(CN2CCN(Cc3ccco3)CC2)c1.O=C(O)C(=O)O [drawing 322] | 0.1434 | 0.2622 | 0.003264 | −0.05758 | −0.1598 | −0.2345 | 
